Source: PMC10850954, “HDAC6/aggresome processing pathway importance for inflammasome formation is context-dependent” (The Journal of Biological Chemistry, 2024)
“Also recorded” adds a separate entry of the source.

Assays:
[1] = tested on: NLRP3 inflammasome; assay: IL-1β release in PBMCs after NLRP3 inflammasome activation; assay type: cell-based, human; details: for effect on IL-1β release (in words): all stimulatory conditions (MSU, nigericin, ATP), vs DMSO; for IL-1β reduction as compared to DMSO: compound 24 h, LPS 0.2 ng/ml 4 h
Method: Figure 3 Effect of […] mediated HDAC6 degradation on NLRP3 inflammasome activation in PBMCs.A, schematic of the mode of action of an HDAC6 degrader. The PROTAC engages both HDAC6 and the E3 ligase cereblon (CRBN), which then leads to ubiquitination and degradation of HDAC6. […] PBMCs (without or with LPS priming for 4 h) were treated with the indicated compounds and HDAC6 levels were detected by immunoblotting with an anti-HDAC6 antibody. Detection of actin was used as a control for loading. CGP, CGP084892 (Caspase-1 inhibitor); AFN700 is an inhibitor of the NF-kB pathway (IKK inhibitor). E, HDAC6 degradation impact on IL-1β release in PBMCs following MSU 200 μg/ml (5 h), nigericin 2 μM (2 h) or ATP 3 mM (0.5 h) treatment. Cells were first primed with 0.2 ng/ml LPS for 4 h at 37 °C, then treated with MSU, nigericin, and ATP as indicated.
Human IL-1β and IL-18 were determined with Cisbio HTRF Cisbio Human IL1β (#62HIL1BPET) and Human IL18 (#62HIL18PEG) protocols. All the data were from 3 or 4 independent biological replicates.
For BMDM cells, 1.5 × 10^6 cells per well were seeded in six-well plates. After priming with 1 μg/ml LPS (Invivogen #tlrl-b5lps), cells were challenged with 200 μg/ml MSU crystals (Invivogen #tlrl-msu-25) for 6 h or 20 μM nigericin (Sigma-Aldrich #N7143-5MG) for 30 min. […] The supernatant was removed, and fresh medium was added to have cells at a density of around 5 × 10^5 cells/ml. 100 μl cells were seeded in 96-well plate and incubated for 1∼2 days. During the culturing, dTAG was added when needed to degrade the DARPin. […] For PBMCs, 3 × 10^4 cells per were seeded, and primed with 0.2 ng/ml LPS for 4 h and then incubated with MSU 200 μg/ml (5 h), nigericin 2 μM (2 h) or ATP 3 mM (0.5 h). For pyrin inflammasome, U937-pyrin cells were seeded in 96 well after 0.5 μM PMA treatment for 3 h and then challenged by BAA473 (200 μM) for 4 h at 37 °C.

[2] = tested on: U937-pyrin cells; assay: Cell viability (resazurin) of U937-pyrin cells, pyroptosis; assay type: cell-based, human; details: BAA473 activation, resazurin assay
Method: Cell viability of PBMCs and U937 cells was checked with PrestoBlue HS Cell Viability Reagent (Invitrogen # P50200) according to the manufacturer’s instructions. After incubation for 1 to 2 h, fluorescence was determined with a PheraStar plate reader under Ex/Em = 540/590 nm.
Supplementary file mmc1.pdf: Supporting Figure S1 BMDM cells were primed by LPS (1 μg/ml) for 4 hrs and then challenged with 20 μM nigericin. 50 μl supernatant was collected every 15 min (up to 90 min) and mIL-1β level was determined by HTRF assay. […] Supporting Figure S2: A, immunoblot of HDAC1, HDAC2 and HDAC6 protein level in WT THP-1 cells vs DMSO or dTAG treated F10-FKBP^F36V THP-1 cells. DARPin F10 was detected by anti-HA antibody. B, FKBP^F36V THP-1 cells were established for evaluating the possible effect of dTAG on IL-1β release. Cells were first treated with PMA (0.5 μM) for 3 hr, then medium was changed and vehicle or dTAG was added (1 μM), followed by 20 μM nigericin for 3 hr. Supporting Figure S3: A, CTG cell viability assay to analyze degrader XY-07-035 toxicity in HEK293T, Jurkat and U937 cells. Cells were treated with different concentrations of the degrader, and cell viability determined by CTG assay was normalized to the non-treated group. […] Supporting Figure S4: Cell viability was measured by resazurin assay, and fluorescence intensity was a representative of the viability.

[3] = target: T1, HDAC6 (Homo sapiens, UniProt Q9UBN7); assay: HDAC6 degradation in THP-1 cells (immunoblot); assay type: cell-based; set-up: endogenous in cells; host or cells: PBMCs (with or without LPS priming); details: non-differentiated and PMA-differentiated THP-1 cells
T1 sequence (Q9UBN7 1-1215): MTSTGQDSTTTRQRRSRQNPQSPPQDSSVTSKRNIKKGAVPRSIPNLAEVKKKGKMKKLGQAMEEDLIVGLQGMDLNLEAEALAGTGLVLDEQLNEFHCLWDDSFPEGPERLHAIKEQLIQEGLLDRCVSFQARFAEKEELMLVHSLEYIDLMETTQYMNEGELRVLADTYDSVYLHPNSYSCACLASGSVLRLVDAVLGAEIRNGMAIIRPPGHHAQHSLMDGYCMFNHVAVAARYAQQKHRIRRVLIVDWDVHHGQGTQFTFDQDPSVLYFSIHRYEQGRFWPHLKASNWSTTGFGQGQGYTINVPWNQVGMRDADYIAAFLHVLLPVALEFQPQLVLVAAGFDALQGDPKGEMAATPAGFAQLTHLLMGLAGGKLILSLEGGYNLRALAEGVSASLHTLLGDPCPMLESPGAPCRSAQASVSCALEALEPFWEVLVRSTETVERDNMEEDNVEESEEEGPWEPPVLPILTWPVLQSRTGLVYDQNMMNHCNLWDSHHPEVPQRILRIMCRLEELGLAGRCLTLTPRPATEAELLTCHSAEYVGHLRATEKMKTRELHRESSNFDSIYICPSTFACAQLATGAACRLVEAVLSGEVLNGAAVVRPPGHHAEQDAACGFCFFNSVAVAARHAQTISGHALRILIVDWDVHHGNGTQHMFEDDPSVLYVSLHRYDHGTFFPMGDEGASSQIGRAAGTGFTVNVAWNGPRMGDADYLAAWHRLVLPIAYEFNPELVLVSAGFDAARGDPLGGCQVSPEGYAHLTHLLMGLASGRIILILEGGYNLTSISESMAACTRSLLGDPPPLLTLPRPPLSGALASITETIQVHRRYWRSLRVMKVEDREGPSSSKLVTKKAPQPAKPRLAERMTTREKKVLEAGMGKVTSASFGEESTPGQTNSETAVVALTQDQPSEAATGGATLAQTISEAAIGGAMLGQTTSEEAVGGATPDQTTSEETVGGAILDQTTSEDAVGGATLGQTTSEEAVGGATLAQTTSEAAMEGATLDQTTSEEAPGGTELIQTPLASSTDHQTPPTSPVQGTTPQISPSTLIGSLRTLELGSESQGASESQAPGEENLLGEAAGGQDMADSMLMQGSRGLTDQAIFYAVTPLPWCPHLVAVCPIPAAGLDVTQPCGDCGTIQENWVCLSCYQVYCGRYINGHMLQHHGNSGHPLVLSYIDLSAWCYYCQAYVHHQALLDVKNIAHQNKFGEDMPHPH

Row | Structure (SMILES) | effect on IL-1β release (in words) [1] | IL-1β reduction as compared to DMSO ([1]; ATP 3 mM 0.5 h) [%] | IL-1β reduction as compared to DMSO ([1]; MSU 200 μg/ml 5 h) | IL-1β reduction as compared to DMSO ([1]; nigericin 2 μM 2 h) [%] | cell viability / protection from pyroptosis [2] | HDAC6 degradation [3]
1 | CN(C(=O)CCCNc1cccc2c1C(=O)N(C1CCC(=O)NC1=O)C2=O)c1ccc(NC(=O)CCCCCCC(=O)NO)cc1 (centres unmarked) [XY-07-35] | clearly reduced | 40 | ca. 60% | 40 | did not protect cells from pyroptosis; also recorded: No significant difference | did not lead to HDAC6 degradation
2 | CN1C(=O)CCC(N2C(=O)c3cccc(NCCCC(=O)N(C)c4ccc(NC(=O)CCCCCCC(=O)NO)cc4)c3C2=O)C1=O (centres unmarked) [XY-07-191] | partial inhibition |  |  |  | No significant difference | 
